Data as given in article doi:10.64898/2026.08.16.745104v1, “C. elegans Dicer stacks with the RIG-I-like receptor DRH-1 to cleave dsRNA” (biorxiv, 2026).

Legend:
[1] = target: T1, DCR-1 in the antiviral complex (AVC; DCR-1•DRH-1•RDE-4) (Caenorhabditis elegans, UniProt P34529); test: cryo-EM structure, […] Å; format: binding; details: helicase nucleotide pocket between Hel1 and Hel2; Mg2+; sample incubated with 5 mM ATP and 3'ovr 106-dsRNA, pH 7.5, 20 °C
T1 construct: three proteins co-expressed in Sf9 cells (baculovirus), StrepTrap and Superose 6 purified; ADP in DCR-1 helicase domain (Hel1/Hel2); with Dicer Related Helicase

[2] = target: T2, DRH-1 in the antiviral complex (AVC; DCR-1•DRH-1•RDE-4) (Caenorhabditis elegans, UniProt G5EDI8); test: cryo-EM structure, […] Å; details: ATP-binding pockets of both DRH-1 helicases (DRH-1 and DRH-1*); sample incubated with 5 mM ATP and 3'ovr 106-dsRNA, pH 7.5, 20 °C
T2 construct: three proteins co-expressed in Sf9 cells (baculovirus), StrepTrap and Superose 6 purified; two stacked DRH-1 helicases (DRH-1 and DRH-1*, the latter only helicase and CTD resolved); with Endoribonuclease dcr-1
T2 sequence (G5EDI8 1-1037): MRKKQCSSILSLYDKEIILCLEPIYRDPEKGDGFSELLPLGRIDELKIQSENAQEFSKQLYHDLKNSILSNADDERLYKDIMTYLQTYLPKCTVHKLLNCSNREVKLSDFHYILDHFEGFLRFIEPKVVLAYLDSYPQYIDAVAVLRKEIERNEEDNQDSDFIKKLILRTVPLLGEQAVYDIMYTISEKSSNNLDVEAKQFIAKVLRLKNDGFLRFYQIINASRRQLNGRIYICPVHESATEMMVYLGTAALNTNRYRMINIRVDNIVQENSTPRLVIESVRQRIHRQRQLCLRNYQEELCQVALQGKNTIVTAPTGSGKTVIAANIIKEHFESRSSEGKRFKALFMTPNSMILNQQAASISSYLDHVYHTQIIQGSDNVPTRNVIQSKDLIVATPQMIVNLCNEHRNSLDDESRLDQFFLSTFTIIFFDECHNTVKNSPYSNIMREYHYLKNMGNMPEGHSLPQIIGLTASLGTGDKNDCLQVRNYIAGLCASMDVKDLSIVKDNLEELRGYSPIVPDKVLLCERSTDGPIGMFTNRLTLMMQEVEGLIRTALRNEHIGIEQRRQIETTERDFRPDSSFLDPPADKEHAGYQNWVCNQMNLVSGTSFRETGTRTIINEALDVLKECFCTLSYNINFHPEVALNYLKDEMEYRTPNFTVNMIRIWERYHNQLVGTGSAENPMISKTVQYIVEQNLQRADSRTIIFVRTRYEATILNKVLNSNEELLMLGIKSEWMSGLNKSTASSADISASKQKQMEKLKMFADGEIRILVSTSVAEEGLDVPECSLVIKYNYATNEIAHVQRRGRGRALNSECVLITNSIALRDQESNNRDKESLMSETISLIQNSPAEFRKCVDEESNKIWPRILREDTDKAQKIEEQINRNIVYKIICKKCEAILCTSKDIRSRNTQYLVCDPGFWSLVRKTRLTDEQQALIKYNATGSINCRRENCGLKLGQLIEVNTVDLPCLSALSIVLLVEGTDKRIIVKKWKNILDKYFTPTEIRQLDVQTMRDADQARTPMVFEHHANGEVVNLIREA
T2 sequence (P34529 whole entry partner): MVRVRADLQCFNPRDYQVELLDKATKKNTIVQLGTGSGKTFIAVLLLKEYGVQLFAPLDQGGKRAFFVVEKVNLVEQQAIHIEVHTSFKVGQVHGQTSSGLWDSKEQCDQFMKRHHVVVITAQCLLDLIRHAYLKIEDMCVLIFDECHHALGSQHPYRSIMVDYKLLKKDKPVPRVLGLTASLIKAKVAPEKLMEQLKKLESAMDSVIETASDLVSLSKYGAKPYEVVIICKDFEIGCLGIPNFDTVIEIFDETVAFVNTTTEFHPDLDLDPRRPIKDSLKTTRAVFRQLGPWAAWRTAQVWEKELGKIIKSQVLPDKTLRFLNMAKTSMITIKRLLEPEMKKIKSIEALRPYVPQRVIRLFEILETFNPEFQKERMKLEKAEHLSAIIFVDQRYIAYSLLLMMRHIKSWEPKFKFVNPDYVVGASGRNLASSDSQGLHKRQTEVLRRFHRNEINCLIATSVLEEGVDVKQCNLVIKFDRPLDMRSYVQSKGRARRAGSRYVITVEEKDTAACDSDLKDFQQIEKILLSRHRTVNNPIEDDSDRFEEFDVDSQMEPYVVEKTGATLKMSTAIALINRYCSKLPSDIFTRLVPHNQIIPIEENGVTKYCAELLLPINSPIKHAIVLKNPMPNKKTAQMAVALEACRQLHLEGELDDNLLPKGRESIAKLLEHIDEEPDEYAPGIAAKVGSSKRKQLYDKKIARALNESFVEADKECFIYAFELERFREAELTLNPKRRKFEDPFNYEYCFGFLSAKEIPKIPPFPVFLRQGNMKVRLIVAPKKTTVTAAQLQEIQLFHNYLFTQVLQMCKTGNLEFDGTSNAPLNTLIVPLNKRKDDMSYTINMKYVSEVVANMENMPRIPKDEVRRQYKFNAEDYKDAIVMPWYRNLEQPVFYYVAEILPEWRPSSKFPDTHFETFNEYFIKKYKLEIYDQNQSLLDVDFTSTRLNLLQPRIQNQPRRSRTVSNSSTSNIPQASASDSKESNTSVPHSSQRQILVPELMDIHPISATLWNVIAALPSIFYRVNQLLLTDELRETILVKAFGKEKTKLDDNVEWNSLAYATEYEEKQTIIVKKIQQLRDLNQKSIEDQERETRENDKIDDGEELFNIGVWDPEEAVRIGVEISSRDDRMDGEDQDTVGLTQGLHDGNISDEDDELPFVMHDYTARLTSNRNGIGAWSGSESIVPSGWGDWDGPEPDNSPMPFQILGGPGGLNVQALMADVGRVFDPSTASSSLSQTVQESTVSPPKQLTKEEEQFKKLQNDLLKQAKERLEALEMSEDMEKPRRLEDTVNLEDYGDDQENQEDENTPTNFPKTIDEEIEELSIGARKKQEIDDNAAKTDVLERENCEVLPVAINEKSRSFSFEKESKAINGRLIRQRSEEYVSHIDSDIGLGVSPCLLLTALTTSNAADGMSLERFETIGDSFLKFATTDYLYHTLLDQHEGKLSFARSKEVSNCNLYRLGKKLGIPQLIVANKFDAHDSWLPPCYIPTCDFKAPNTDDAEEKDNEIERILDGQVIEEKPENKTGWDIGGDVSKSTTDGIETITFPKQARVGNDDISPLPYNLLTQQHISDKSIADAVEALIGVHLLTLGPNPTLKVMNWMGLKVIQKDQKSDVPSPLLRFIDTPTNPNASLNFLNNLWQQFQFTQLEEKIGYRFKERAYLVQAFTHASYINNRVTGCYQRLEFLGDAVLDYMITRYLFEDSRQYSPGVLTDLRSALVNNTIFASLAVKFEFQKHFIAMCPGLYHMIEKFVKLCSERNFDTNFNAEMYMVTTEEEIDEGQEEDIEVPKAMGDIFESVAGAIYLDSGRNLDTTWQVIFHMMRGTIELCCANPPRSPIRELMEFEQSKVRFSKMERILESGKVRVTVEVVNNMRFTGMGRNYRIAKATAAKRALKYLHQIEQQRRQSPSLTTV
T2 sequence (G5EBF5 1-385 partner): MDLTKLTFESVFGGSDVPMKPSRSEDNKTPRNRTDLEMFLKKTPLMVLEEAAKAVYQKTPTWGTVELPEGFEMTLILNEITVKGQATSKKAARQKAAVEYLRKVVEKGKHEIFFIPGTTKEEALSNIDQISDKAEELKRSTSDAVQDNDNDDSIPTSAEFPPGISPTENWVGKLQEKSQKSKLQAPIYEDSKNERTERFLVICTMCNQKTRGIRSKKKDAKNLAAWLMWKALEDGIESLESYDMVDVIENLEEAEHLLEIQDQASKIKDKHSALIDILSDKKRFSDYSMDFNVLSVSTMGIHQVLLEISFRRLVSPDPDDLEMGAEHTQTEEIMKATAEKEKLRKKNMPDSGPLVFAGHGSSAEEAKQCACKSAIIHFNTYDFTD

T1 sequence (P34529 whole entry, the tested form may be a part): as the sequence (P34529 whole entry partner) above
T1 sequence (G5EDI8 1-1037 partner): as the sequence (G5EDI8 1-1037) above
T1 sequence (G5EBF5 1-385 partner): as the sequence (G5EBF5 1-385 partner) above

Nc1ncnc2c1ncn2[C@@H]1O[C@H](COP(=O)(O)OP(=O)(O)O)[C@@H](O)[C@H]1O [ADP] was tested, and the “cryo-EM structure, 3.0 Å” value [1] was “we modeled ADP within the conserved nucleotide-binding pocket of the DCR-1 helicase” and the “cryo-EM structure, 3.0 Å” value [2] was “ADP was also present in the ATP-binding pockets of both DRH-1 helicases”.
